The values that follow are results of earlier work, collected in patent US20100104643A1, “PHARMACEUTICAL COMPOSITIONS” (ZYSIS LIMITED, priority 2007, published 2010).

The conditions of series [1]: for dose-concentration relationship: plasma concentrations.
The conditions of series [2]: trimipramine antidepressant treatment.

Each structure is given as a SMILES string.

For `CNCC(C)CN1c2ccccc2CCc2ccccc21` (stereo not drawn) [desmethyltrimipramine], in series [1], the dose-concentration relationship result is “deviation from linearity within the therapeutic dose range”. Besides, in series [2], the “upper limit of the therapeutic trough plasma concentrations” value was 0.38 mg/L.
For `CC(CN(C)C)CN1c2ccccc2CCc2ccccc21` (stereo not drawn) [trimipramine, 10,11-Dihydro-5-(3-dimethylamino-2-methylpropyl)-5H-dibenz(b,f) azepine], the “bioavailability difference between poor and ultra-fast metabolizers” value in series [1] (CYP2D6 genotypes) is 6 fold. In series [1] (higher in ultrarapid than in poor metabolizers), the “mean systemic clearances, ultrarapid metabolizers of CYP2D6 substrates versus poor metabolizers” value was 2.5 fold. The dose-concentration relationship result in series [1] is given as “linear dose-concentration relationship for doses up to 150 mg”. Also, in series [1] (poor metabolizer group), the “total oral clearance, low extreme” value was 3.5 L/h. Moreover, the “difference in total oral clearance” value in series [1] (poor versus ultrarapid CYP2D6 metabolizers) is “about 15 fold”. In series [1] (ultrarapid metabolizer group), the “total oral clearance, high extreme” value was 712.6 L/h. Further, the “upper limit of the therapeutic trough plasma concentrations” value in series [2] is 0.24 mg/L.
